Reference: US8957205B2, “Cycloalkane carboxamide derivatives and production process of same” (Seikagaku Corporation, priority 2006, dated 2015)
*1 amine or outer side, *2 acyl side, *3 side chain or, on linkers, in order; H or OH if unused. Where a SMILES comes first, the peptide text is derived from it. [ ]: non-standard residue; d: D form. The star is where a group is joined. Ac6c = NC1(C(=O)O)CCCCC1; Morpholide = C1CN(*)CCO1; Nle = CCCC[C@H](N)C(=O)O; Cbz = O=C(OCc1ccccc1)*; CO = O=C([*:1])[*:2]

Experiments:
Human cathepsin B = target: T1, Human cathepsin B (Homo sapiens, UniProt P07858); assay: Measurement of cathepsin B inhibitory activity (Z-Arg-Arg-MCA fluorescent substrate); assay type: biochemical; conditions: selectivity ratio B/K
T1 construct: purchased Calbiochem Corp
Experimental: (§1) Human cathepsin B (Calbiochem Corp.) was used for measurement. Activity was measured based on decomposition of the fluorescent substrate Z-Arg-Arg-MCA (Peptide Institute, Inc.) following the method of Barrett et al.^3). Namely, the decomposition of 20 mM Z-Arg-Arg-MCA by cathepsin B was measured in 100 mM sodium/potassium phosphate, 1 mM EDTA, 8 mM cysteine and 0.005% Brij35 at pH 6.0. The reaction was carried out for 30 minutes at 30° C., and stopped by the addition of 2×10^−5 M Calpeptin. After stopping the reaction, fluorescent intensity was measured at an excitation wavelength of 355 nm and measurement wavelength of 460 nm. Inhibition of cathepsin B by the compounds was examined using the reaction system described above.

Human cathepsin L = target: T2, Human cathepsin L (Homo sapiens, UniProt P07711); assay: Measurement of cathepsin L inhibitory activity (Z-Phe-Arg-MCA fluorescent substrate); assay type: biochemical; conditions: selectivity ratio L/K
T2 construct: purchased Calbiochem Corp
Experimental: as §1, with “cathepsin L” for “cathepsin B”, “substrate Z-Phe-Arg-MCA” for “substrate Z-Arg-Arg-MCA”, “[…] Z-Phe-Arg-MCA” for “mM Z-Arg-Arg-MCA”, “mM sodium acetate, 5” for “mM sodium/potassium phosphate, 1”, “EDTA, 4 mM urea,” for “EDTA,”, “pH 5.5.” for “pH 6.0.”

T2 sequence (P07711 114-333): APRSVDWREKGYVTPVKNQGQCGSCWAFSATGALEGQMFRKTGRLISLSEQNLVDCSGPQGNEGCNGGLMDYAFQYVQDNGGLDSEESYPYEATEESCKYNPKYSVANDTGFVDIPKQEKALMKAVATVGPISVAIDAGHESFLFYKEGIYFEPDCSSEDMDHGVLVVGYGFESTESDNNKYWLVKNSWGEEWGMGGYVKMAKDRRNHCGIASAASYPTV

Compound | B/K (ratio of cathepsin B IC50 to cathepsin K IC50) (Human cathepsin B) | L/K (ratio of cathepsin L IC50 to cathepsin K IC50) (Human cathepsin L)
CC(C)[C@@H](C=O)NC(=O)C1(NC(=O)OCc2ccccc2)CCCCC1 [Example 7, N-[[1-[[(Phenylmethoxy)carbonyl]amino]cyclohexyl]carbonyl]-L-valinal] (Cbz-[Ac6c]-Val-aldehyde) | 230 | 400
CCCC[C@@H](C=O)NC(=O)C1(NC(=O)OCc2ccccc2)CCCCC1 [Example 8, N-[[1-[[(Phenylmethoxy)carbonyl]amino]cyclohexyl]carbonyl]-L-norleucinal] (Cbz-[Ac6c]-[Nle]-aldehyde) | 35 | 50
CC(C)[C@@H](C=O)NC(=O)C1(NC(=O)c2ccco2)CCCCC1 [Example 9, N-[[1-[(2-Furanylcarbonyl)amino]cyclohexyl]carbonyl]-L-valinal] | 87 | 370
CCCC[C@@H](C=O)NC(=O)C1(NC(=O)N2CCOCC2)CCCCC1 [Example 10, N-[[1-[(4-Morpholinylcarbonyl)amino]cyclohexyl]carbonyl]-L-norleucinal] ({Morpholide-CO}-[Ac6c]-[Nle]-aldehyde) | 12 | 21
CC(C)C[C@H](NC(=O)OCc1ccccc1)C(=O)N[C@H](C=O)C(C)C [Reference Example 184, N—[N-[(Phenylmethoxy)carbonyl]-L-leucyl]-L-valinal] (Cbz-Leu-Val-aldehyde) | 58 | 74
CCCC[C@@H](C=O)NC(=O)[C@H](CC(C)C)NC(=O)OCc1ccccc1 [Reference Example 185, N—[N-[(Phenylmethoxy)carbonyl]-L-leucyl]-L-norleucinal] | 11 | 15
CCCC[C@@H](C=O)NC(=O)[C@H](CC(C)C)NC(=O)N1CCOCC1 [Reference Example 186, N—[N-(4-Morpholinylcarbonyl)-L-leucyl]-L-norleucinal] | 4.3 | 7.3
CC(C)C[C@H](NC(=O)c1ccco1)C(=O)N[C@H](C=O)C(C)C [Reference Example 187, N—[N-(2-Furanylcarbonyl)-L-leucyl]-L-valinal] | 30 | 35
